Results: the CheMixHub ionic liquid set

Assay: xn = mol fraction of the nth substance listed

O=[N+]([O-])[O-].O=[N+]([O-])[O-].[Mg+2] + O + CC[NH3+].O=[N+]([O-])[O-]
100 kPa
Conditions	electrical conductivity [S/m]	viscosity [mPa·s]
223 K, x1 = 0.2128, x2 = 0.6185	0.001	–
233 K, x1 = 0.2128, x2 = 0.6185	0.006	–
243 K, x1 = 0.1395, x2 = 0.4931	0.002	–
243 K, x1 = 0.2128, x2 = 0.6185	0.02	–
253 K, x1 = 0.1395, x2 = 0.4931	0.019	–
253 K, x1 = 0.2128, x2 = 0.6185	0.052	–
263 K, x1 = 0.1395, x2 = 0.4931	0.077	–
263 K, x1 = 0.2128, x2 = 0.6185	0.113	–
273 K, x1 = 0.1395, x2 = 0.4931	0.206	–
273 K, x1 = 0.2128, x2 = 0.6185	0.216	–
283 K, x1 = 0.1395, x2 = 0.4931	0.429	–
283 K, x1 = 0.2128, x2 = 0.6185	0.375	–
288.15 K, x1 = 0.1395, x2 = 0.4931	–	172
288.15 K, x1 = 0.2128, x2 = 0.6185	–	334
293 K, x1 = 0.1395, x2 = 0.4931	0.76	–
293 K, x1 = 0.2128, x2 = 0.6185	0.602	–
293.15 K, x1 = 0.1395, x2 = 0.4931	–	138.7
293.15 K, x1 = 0.2128, x2 = 0.6185	–	253
298.15 K, x1 = 0.1395, x2 = 0.4931	–	112.6
298.15 K, x1 = 0.2128, x2 = 0.6185	–	193
303 K, x1 = 0.1395, x2 = 0.4931	1.2	–
303 K, x1 = 0.2128, x2 = 0.6185	0.91	–
303.15 K, x1 = 0.1395, x2 = 0.4931	–	92
303.15 K, x1 = 0.2128, x2 = 0.6185	–	148.9
308.15 K, x1 = 0.1395, x2 = 0.4931	–	75.7
308.15 K, x1 = 0.2128, x2 = 0.6185	–	115.8
313 K, x1 = 0.1395, x2 = 0.4931	1.74	–
313 K, x1 = 0.2128, x2 = 0.6185	1.31	–
313.15 K, x1 = 0.1395, x2 = 0.4931	–	62.7
313.15 K, x1 = 0.2128, x2 = 0.6185	–	90.7
323 K, x1 = 0.1395, x2 = 0.4931	2.37	–
323 K, x1 = 0.2128, x2 = 0.6185	1.8	–
333 K, x1 = 0.1395, x2 = 0.4931	3.08	–
333 K, x1 = 0.2128, x2 = 0.6185	2.39	–
343 K, x1 = 0.1395, x2 = 0.4931	3.86	–
343 K, x1 = 0.2128, x2 = 0.6185	3.08	–
353 K, x1 = 0.1395, x2 = 0.4931	4.69	–
353 K, x1 = 0.2128, x2 = 0.6185	3.88	–
363 K, x1 = 0.1395, x2 = 0.4931	5.56	–
363 K, x1 = 0.2128, x2 = 0.6185	4.78	–
373 K, x1 = 0.1395, x2 = 0.4931	6.46	–
373 K, x1 = 0.2128, x2 = 0.6185	5.78	–

CCCC[n+]1ccn(C)c1.O=[N+]([O-])[O-] + O + NCCO
100 kPa
Conditions	viscosity [mPa·s]
303 K, x1 = 0.2218, x2 = 0.4128	15.07
303 K, x1 = 0.2959, x2 = 0.2542	17.98
308 K, x1 = 0.2218, x2 = 0.4128	12.54
308 K, x1 = 0.2959, x2 = 0.2542	14.93
313 K, x1 = 0.01284, x2 = 0.8603	2.342
313 K, x1 = 0.02953, x2 = 0.8245	2.9
313 K, x1 = 0.05213, x2 = 0.7761	3.701
313 K, x1 = 0.08442, x2 = 0.707	4.94
313 K, x1 = 0.1343, x2 = 0.6001	6.9
313 K, x1 = 0.2218, x2 = 0.4128	10.58
313 K, x1 = 0.2959, x2 = 0.2542	12.55
313 K, x1 = 0.4146, x2 = 0	17.77
318 K, x1 = 0.2218, x2 = 0.4128	9.05
318 K, x1 = 0.2959, x2 = 0.2542	10.69
323 K, x1 = 0.2218, x2 = 0.4128	7.81
323 K, x1 = 0.2959, x2 = 0.2542	9.2

C[NH+](C)C.O=S(=O)([N-]S(=O)(=O)C(F)(F)F)C(F)(F)F + O=C1CCCO1
101 kPa
Conditions	electrical conductivity [S/m]	viscosity [mPa·s]
298.15 K, x1 = 0.0005	0.043	–
298.15 K, x1 = 0.0008	0.059	–
298.15 K, x2 = 0.5239	1.89	–
303.15 K, x2 = 0.8088	–	3.08
303.15 K, x2 = 0.8803	–	2.34
313.15 K, x2 = 0.672	–	3.62
313.15 K, x2 = 0.8803	–	1.86
333.15 K, x2 = 0.7428	–	1.87
343.15 K, x2 = 0.8803	–	0.98
